Laboratory results taken from ChEMBL document CHEMBL3885861, “Open TG-GATES”.

Species: Rattus norvegicus
Assay: Open TG-GATES - Regimen: Single
Format: toxicity, organism-based, Sprague-Dawley
Design: regimen Single, gender Male, age 6 weeks
Settings: in vivo, iv, route intravenous injection; for APTT / Bas / Eos / Fbg / Hb / Ht / Lym / MCH / MCHC / MCV / Mono / Neu / Plat / RBC / Ret / WBC / PT: tissue Blood; for KIDNEY_L / KIDNEY_R / KIDNEY_TOTAL: tissue Kidney; for LIVER: tissue Liver
[1] = 1 mg/kg, 9 h, dose level Middle
[2] = 1 mg/kg, 9 h, tissue Plasma, dose level Middle
[3] = 1 mg/kg, 24 h, dose level Middle
[4] = 1 mg/kg, 24 h, tissue Plasma, dose level Middle
[5] = 3 mg/kg, 3 h, tissue Plasma, dose level High

CISPLATIN
TERMINAL_BW [1]: 214.2 g | APTT [1]: 23.6 s | Bas [1]: 0% | Eos [1]: 0.4% | Fbg [1]: 267.8 mg/dL | Hb [1]: 12.7 g/dL | Ht [1]: 39.1% | Lym [1]: 81.8% | MCH [1]: 20.6 pg | MCHC [1]: 32.4% | MCV [1]: 63.7 fL | Mono [1]: 2.2% | Neu [1]: 15% | Plat [1]: 132.5 x10_4/uL | RBC [1]: 613.6 x10_4/ul | Ret [1]: 6.7% | WBC [1]: 93.8 x10_2/uL | KIDNEY_L [1]: 1 g | KIDNEY_R [1]: 1 g | KIDNEY_TOTAL [1]: 2 g | LIVER [1]: 9 g | ALP [2]: 1312 IU/L | ALT [2]: 39.2 IU/L | AST [2]: 73 IU/L | CRE [2]: 0.1 mg/dL | Ca [2]: 11 mg/dL | DBIL [2]: 0 mg/dL | GLC [2]: 179.2 mg/dL | IP [2]: 9.9 mg/dL | K [2]: 4.2 meq/L | Na [2]: 139.6 meq/L | PL [2]: 120.6 mg/dL | RALB [2]: 2.9 g/dL | TBIL [2]: 0.028 mg/dL | TC [2]: 67 mg/dL | TG [2]: 51.8 mg/dL | TP [2]: 5.3 g/dL | gamma-GTP [2]: 1.4 IU/L | TERMINAL_BW [3]: 213.8 g | Bas [3]: 0% | Eos [3]: 0.8% | Fbg [3]: 329 mg/dL | MCH [3]: 21 pg | MCHC [3]: 32.9% | MCV [3]: 63.9 fL | Mono [3]: 3% | Neu [3]: 16% | PT [3]: 16 s | Plat [3]: 128.4 x10_4/uL | RBC [3]: 631.8 x10_4/ul | Ret [3]: 5.2% | WBC [3]: 100.8 x10_2/uL | KIDNEY_L [3]: 1 g | KIDNEY_R [3]: 1 g | KIDNEY_TOTAL [3]: 2.1 g | ALT [4]: 46 IU/L | BUN [4]: 15.4 mg/dL | CRE [4]: 0.2 mg/dL | DBIL [4]: 0 mg/dL | GLC [4]: 183.2 mg/dL | IP [4]: 7.7 mg/dL | K [4]: 4.4 meq/L | LDH [4]: 163.4 IU/L | PL [4]: 143.6 mg/dL | RALB [4]: 3.1 g/dL | TBIL [4]: 0.014 mg/dL | TC [4]: 78.6 mg/dL | TG [4]: 85.8 mg/dL | TP [4]: 5.7 g/dL | gamma-GTP [4]: 1.6 IU/L | TERMINAL_BW (3 mg/kg, 3 h, dose level High): 219.6 g | APTT (3 mg/kg, 3 h, dose level High): 22.3 s | Bas (3 mg/kg, 3 h, dose level High): 0% | Eos (3 mg/kg, 3 h, dose level High): 1% | Fbg (3 mg/kg, 3 h, dose level High): 271 mg/dL | Hb (3 mg/kg, 3 h, dose level High): 12.7 g/dL | Ht (3 mg/kg, 3 h, dose level High): 39% | Lym (3 mg/kg, 3 h, dose level High): 78.4% | MCV (3 mg/kg, 3 h, dose level High): 65.3 fL | Mono (3 mg/kg, 3 h, dose level High): 2.8% | PT (3 mg/kg, 3 h, dose level High): 15.9 s | Plat (3 mg/kg, 3 h, dose level High): 130.5 x10_4/uL | RBC (3 mg/kg, 3 h, dose level High): 596.8 x10_4/ul | Ret (3 mg/kg, 3 h, dose level High): 6.7% | WBC (3 mg/kg, 3 h, dose level High): 97.6 x10_2/uL | KIDNEY_L (3 mg/kg, 3 h, dose level High): 1 g | KIDNEY_R (3 mg/kg, 3 h, dose level High): 1 g | KIDNEY_TOTAL (3 mg/kg, 3 h, dose level High): 1.9 g | LIVER (3 mg/kg, 3 h, dose level High): 9.7 g | ALP [5]: 1622.8 IU/L | ALT [5]: 43.4 IU/L | AST [5]: 80.6 IU/L | CRE [5]: 0.2 mg/dL | DBIL [5]: 0 mg/dL | GLC [5]: 177.6 mg/dL | IP [5]: 9 mg/dL | K [5]: 4.2 meq/L | LDH [5]: 166.2 IU/L | Na [5]: 139.4 meq/L | PL [5]: 115 mg/dL | RALB [5]: 2.8 g/dL | TBIL [5]: 0.026 mg/dL | TC [5]: 64.8 mg/dL | TG [5]: 63.6 mg/dL | TP [5]: 5.2 g/dL | gamma-GTP [5]: 1.6 IU/L | TERMINAL_BW (3 mg/kg, 6 h, dose level High): 210.6 g
